Experimental data: patent publication US4322412A, “Anthracycline glycosides, their preparation, use and compositions thereof” (priority 1979, dated 1982)
In brackets after ≈: the same amount, converted by molar mass. Counter-ions that a name gives are not always drawn. Like-named read-outs stand apart in the source and are kept apart here. One block for each compound: values may come before it.

What was measured:
HeLa cells = assay: Effect on HeLa Cells Cloning Efficiency In Vitro; type: cell-based; details: for IC50: Homo sapiens, HeLa, read-out: ID50 (HeLa cells cloning efficiency); for cytotoxicity relative to parent compounds: in words, vs respective parent compounds (Table 1)
Description: ^(a) HeLa cells were exposed to the test compounds for 24 hours, then
plated. The number of colonies was evaluated 5 days later.

P-388 ascitic leukemia = assay: Antitumor Activity on Ascitic P 388 Leukemia in Mice; type: in vivo; details: for antitumor activity relative to parent compounds: at the maximal tolerated dose; for in vivo toxicity relative to parent compounds: vs parent compounds; for in vivo toxicity: even at a dose of 200 mg/kg; for antitumor activity relative to daunorubicin: vs daunorubicin in the same experiment
Description: Several of the new compounds of the invention were tested on HeLa cells cloning efficiency in vitro and on P-388 ascitic leukemia in mice, in comparison with daunorubicin and doxorubicin.
Antitumor Activity on Ascitic P 388 Leukemia in Mice
^(a) Mice were treated i.p. on day 1 after tumor cells inoculation.
^(b) Median survival time of treated mice/median survival time of
^(c) Evaluated on the basis of macroscopic autoptic findings.
^(d) Data of two separate experiments.

[1] = 24 hours exposure, then plated, colonies evaluated 5 days later

Compound: COc1cccc2c1C(=O)c1c(O)c3c(c(O)c1C2=O)C[C@@](O)(C(C)=O)C[C@@H]3O[C@H]1C[C@H](N)[C@H](O)[C@H](C)O1 [Daunorubicin . HCl, daunorubicin, reference compound]
IC50 (HeLa cells; 24 h): 0.0072 µg/mL
Toxic Deaths (macroscopic autoptic findings) (P-388 ascitic leukemia; 2.9 mg/kg i.p. day 1, two separate experiments, first value): 0/10
Toxic Deaths (macroscopic autoptic findings) (P-388 ascitic leukemia; 2.9 mg/kg i.p. day 1, two separate experiments, second value): 0/8
Toxic Deaths (macroscopic autoptic findings) (P-388 ascitic leukemia; 4.4 mg/kg i.p. day 1, two separate experiments, first value): 3/10
Toxic Deaths (macroscopic autoptic findings) (P-388 ascitic leukemia; 4.4 mg/kg i.p. day 1, two separate experiments, second value): 0/6
Toxic Deaths (macroscopic autoptic findings) (P-388 ascitic leukemia; 6.6 mg/kg i.p. day 1, two separate experiments, first value): 8/10
Toxic Deaths (macroscopic autoptic findings) (P-388 ascitic leukemia; 6.6 mg/kg i.p. day 1, two separate experiments, second value): 0/6

Compound: COc1cccc2c1C(=O)c1c(O)c3c(c(O)c1C2=O)C[C@@](O)(C(=O)CO)C[C@@H]3O[C@H]1C[C@H](N)[C@H](O)[C@H](C)O1 [Doxorubicin . HCl (adriamycin), doxorubicin, reference compound]
IC50 (HeLa cells; 24 h): 0.0095 µg/mL
T/C (median survival time of treated mice/control mice × 100) (P-388 ascitic leukemia; 4.4 mg/kg i.p. day 1): 219%
Toxic Deaths (macroscopic autoptic findings) (P-388 ascitic leukemia; 4.4 mg/kg i.p. day 1): 0/8
T/C (median survival time of treated mice/control mice × 100) (P-388 ascitic leukemia; 6.6 mg/kg i.p. day 1): 223%
Toxic Deaths (macroscopic autoptic findings) (P-388 ascitic leukemia; 6.6 mg/kg i.p. day 1): 0/8
T/C (median survival time of treated mice/control mice × 100) (P-388 ascitic leukemia; 10 mg/kg i.p. day 1): 180%
Toxic Deaths (macroscopic autoptic findings) (P-388 ascitic leukemia; 10 mg/kg i.p. day 1): 4/8

Compound: COc1cccc2c1C(=O)c1c(cc3c(c1O)[C@@H](O[C@H]1C[C@H](N)[C@H](OC)[C@H](C)O1)C[C@](O)(C(C)=O)C3)C2=O [II, 4'-O-methyl-11-deoxy-daunorubicin]
IC50 (HeLa cells; [1]): 0.066 µg/mL (≈ 0.126 µM)
cytotoxicity relative to parent compounds (HeLa cells): less cytotoxic than their respective parent compounds
T/C (median survival time of treated mice/control mice × 100) (P-388 ascitic leukemia; 25 mg/kg i.p. day 1): 180%
Toxic Deaths (macroscopic autoptic findings) (P-388 ascitic leukemia; 25 mg/kg i.p. day 1): 0/9
T/C (median survival time of treated mice/control mice × 100) (P-388 ascitic leukemia; 50 mg/kg i.p. day 1): 225%
Toxic Deaths (macroscopic autoptic findings) (P-388 ascitic leukemia; 50 mg/kg i.p. day 1): 1/9
antitumor activity relative to parent compounds (P-388 ascitic leukemia; in words): comparable to that of the parent compounds
in vivo toxicity relative to parent compounds (P-388 ascitic leukemia; in words): less toxic in vivo

Compound: COc1cccc2c1C(=O)c1c(cc3c(c1O)[C@@H](O[C@H]1C[C@H](N)[C@H](OC)[C@H](C)O1)C[C@](O)(C(=O)CO)C3)C2=O [III, 4'-O-methyl-11-deoxy-doxorubicin]
IC50 (HeLa cells; [1]): 0.022 µg/mL (≈ 0.0406 µM)
cytotoxicity relative to parent compounds (HeLa cells): less cytotoxic than their respective parent compounds
T/C (median survival time of treated mice/control mice × 100) (P-388 ascitic leukemia; 6.6 mg/kg i.p. day 1): 195%
Toxic Deaths (macroscopic autoptic findings) (P-388 ascitic leukemia; 6.6 mg/kg i.p. day 1): 0/8
T/C (median survival time of treated mice/control mice × 100) (P-388 ascitic leukemia; 10 mg/kg i.p. day 1): 209%
Toxic Deaths (macroscopic autoptic findings) (P-388 ascitic leukemia; 10 mg/kg i.p. day 1): 0/8
T/C (median survival time of treated mice/control mice × 100) (P-388 ascitic leukemia; 15 mg/kg i.p. day 1): 238%
Toxic Deaths (macroscopic autoptic findings) (P-388 ascitic leukemia; 15 mg/kg i.p. day 1): 0/7
T/C (median survival time of treated mice/control mice × 100) (P-388 ascitic leukemia; 22.5 mg/kg i.p. day 1): 214%
Toxic Deaths (macroscopic autoptic findings) (P-388 ascitic leukemia; 22.5 mg/kg i.p. day 1): 0/10
range of active and non-toxic doses (P-388 ascitic leukemia; in words): wide range of active and non-toxic doses
antitumor activity relative to parent compounds (P-388 ascitic leukemia; in words): comparable to that of the parent compounds
in vivo toxicity relative to parent compounds (P-388 ascitic leukemia; in words): less toxic in vivo

IC50 (HeLa cells; [1]): 1 µg/mL (≈ 1.85 µM)
Compound: COc1cccc2c1C(=O)c1c(cc3c(c1OC)[C@@H](O[C@H]1C[C@H](N)[C@H](OC)[C@H](C)O1)C[C@](O)(C(C)=O)C3)C2=O [IV, 4',6-di-O-methyl-11-deoxy-daunorubicin]

Compound: COc1cccc2c1C(=O)c1c(O)c3c(c(OC)c1C2=O)C[C@@](O)(C(C)=O)C[C@@H]3O[C@H]1C[C@H](N)[C@H](O)[C@H](C)O1 [VI, 11-O-methyl-daunorubicin]
IC50 (HeLa cells; [1]): 0.4 µg/mL (≈ 0.739 µM)
cytotoxicity relative to parent compounds (HeLa cells): markedly less cytotoxic than are their parent compounds
T/C (median survival time of treated mice/control mice × 100) (P-388 ascitic leukemia; 100 mg/kg i.p. day 1): 111%
Toxic Deaths (macroscopic autoptic findings) (P-388 ascitic leukemia; 100 mg/kg i.p. day 1): 0/4
T/C (median survival time of treated mice/control mice × 100) (P-388 ascitic leukemia; 200 mg/kg i.p. day 1): 122%
Toxic Deaths (macroscopic autoptic findings) (P-388 ascitic leukemia; 200 mg/kg i.p. day 1): 0/3
in vivo toxicity (P-388 ascitic leukemia; in words): not toxic
antitumor activity relative to daunorubicin (P-388 ascitic leukemia; in words): comparable to that of daunorubicin

Compound: COc1cccc2c1C(=O)c1c(O)c3c(c(OC)c1C2=O)C[C@@](O)(C(C)=O)C[C@@H]3O[C@H]1C[C@H](N)[C@H](OC)[C@H](C)O1 [VIII, 4',11-di-O-methyl-daunorubicin]
IC50 (HeLa cells; [1]): 0.5 µg/mL (≈ 0.9 µM)
cytotoxicity relative to parent compounds (HeLa cells): markedly less cytotoxic than are their parent compounds
T/C (median survival time of treated mice/control mice × 100) (P-388 ascitic leukemia; 100 mg/kg i.p. day 1): 111%
Toxic Deaths (macroscopic autoptic findings) (P-388 ascitic leukemia; 100 mg/kg i.p. day 1): 0/6
T/C (median survival time of treated mice/control mice × 100) (P-388 ascitic leukemia; 200 mg/kg i.p. day 1): 122%
Toxic Deaths (macroscopic autoptic findings) (P-388 ascitic leukemia; 200 mg/kg i.p. day 1): 0/6
in vivo toxicity (P-388 ascitic leukemia; in words): not toxic
antitumor activity relative to daunorubicin (P-388 ascitic leukemia; in words): comparable to that of daunorubicin
